Active and inactive are the calls of the source. No cut-off for these calls is given here.
What was measured:
Type in all cases: functional, cell-based
PC-3 [1] = assay: Antimigratory activity against Homo sapiens (human) PC3 cells at 50 uM after 24 hr by wound-healing assay
PC-3 [2] = assay: Antiproliferative activity against Homo sapiens (human) PC3 cells at 50 uM after 72 hr by MTT assay
PC-3 [3] = assay: Antimigratory activity against Homo sapiens (human) PC3 cells at 200 uM after 24 hr by wound-healing assay
PC-3 [4] = assay: Antiproliferative activity against Homo sapiens (human) PC3 cells at 1 uM after 72 hr by MTT assay
PC-3 [5] = assay: Antiproliferative activity against Homo sapiens (human) PC3 cells at 10 uM after 72 hr by MTT assay

SMILES | Activity (PC-3 [1]) | Activity (PC-3 [2]) | Activity (PC-3 [3]) | Activity (PC-3 [4]) | Activity (PC-3 [5])
CC1=C2C(=O)[C@H]3[C@@H](CC=C4C[C@@H](O)CC[C@@]43C)[C@@H]2CC[C@]12O[C@@H]1C[C@H](C)CN[C@H]1[C@H]2C | Active | Active | – | – | –
CC1=C2C(=O)[C@H]3[C@@H](CC[C@H]4C[C@@H](O)CC[C@@]43C)[C@@H]2CC[C@]12O[C@@H]1C[C@H](C)CN[C@H]1[C@H]2C | inactive | Active | – | – | –
Cc1c([C@H](C)[C@@H]2NC[C@@H](C)C[C@H]2O)ccc2c1C[C@H]1[C@H]2CC=C2C[C@@H](O)CC[C@@]21C | Active | Active | – | – | –
Cc1c([C@H](C)[C@@H]2NC[C@@H](C)C[C@H]2O)ccc2c1C[C@H]1[C@H]2CC[C@H]2CC(=O)CC[C@@]21C | Active | Active | – | – | –
O=C1NC(=O)/C(=C/c2ccc(O)cc2)N1 | – | – | Active | – | –
CC1=C2C(=O)[C@H]3[C@@H](CC[C@H]4C[C@@H](O)C[C@H](O)[C@@]43C)[C@@H]2CC[C@]12O[C@@H]1C[C@H](C)CN[C@H]1[C@H]2C | Active | inactive | – | – | –
C/C1=C/C(=O)O[C@@H]2C[C@@H](CC[C@H](C)/C=C\C=C\CC1)O[C@@](O)([C@@H]1CSC(=O)N1)C2 | – | – | – | Active | –
Cc1c([C@H](C)[C@@H]2NC[C@@H](C)C[C@H]2O)ccc2c1C[C@H]1[C@H]2CCC2=CC(=O)C=C[C@@]21C | Active | Active | – | – | –
CC1=C2C(=O)[C@H]3[C@@H](CC=C4CC(=O)CC[C@@]43C)[C@@H]2CC[C@]12O[C@@H]1C[C@H](C)CN[C@H]1[C@H]2C | Active | Active | – | – | –
CC1=C2C(=O)[C@H]3[C@@H](CC=C4C[C@@H](O[C@@H]5O[C@H](CO)[C@@H](O)[C@H](O)[C@H]5O)CC[C@@]43C)[C@@H]2CC[C@]12O[C@@H]1C[C@H](C)CN[C@H]1[C@H]2C | inactive | inactive | – | – | –
Cc1c([C@H](C)[C@@H]2NC[C@@H](C)C[C@H]2O)ccc2c1C[C@H]1[C@H]2CCC2=CC(=O)CC[C@@]21C | Active | Active | – | – | Active

— ChEMBL document CHEMBL3045989, “The Veratrum alkaloids jervine, veratramine, and their analogues as prostate cancer migration and proliferation inhibitors: biological evaluation and pharmacophore modeling” (Med Chem Res, 2013)
